Measurements taken from US20140056811A1, “NEW CELL-PENETRATING PEPTIDES AND USES THEREOF” (COMPUGEN LTD., priority 2010, published 2014).
Entries after “also recorded” stand apart in the source; their conditions may differ. Peptide text beside a SMILES is read from it. * marks the point of attachment. 5FAM = O=C1OC2(c3ccc(O)cc3Oc3cc(O)ccc32)c2ccc(C(=O)*)cc21; FAM = carboxyfluorescein

Tests used:
Type in all cases: cell-based
A549 cells = assay: FACS binding analysis of CPP conjugated liposomes; details: FAM-CPP conjugated to hyaluronan coated liposomes, 30 minutes on ice
Description: Liposome preparation was carried out as described in Peer D., at al., 2008, Science 319, 627-630, Briefly, liposomes (60% soy-pc, 20% DPPE 20% cholesterol mol/mol) were prepared at a concentration of 40 mg/ml (Soy PC-273 mg, DPPE-81.2 mg Cholesterol-145.4 mg in 10 ml of ethanol). After a complete dissolvent, the solution was evaporated in a rotary evaporator (BUCHI R-210). Following the evaporation the dry lipid film was hydrated in 10 ml of HEPES (PH 7.4) and the solution was shaken (2 hr 65° C.). The MLV were reduced to ULV with an average size of ˜150 nm (Zetasizer Nano ZS system) by passing them through an extruder (Lipex) using filtration membranes in a serially manner ([…]). Average zeta potential of the ULV was −3 mV (Zetasizer Nano ZS system).
Hyaluronan (HA) (700 KDa Lifecore) was dissolved in 0.2M MES buffer (PH 5.5) to a final concentration of 5 mg/ml. HA was activate with EDC and solfo-NHS at a molar ratio of 1:1:6. After 30 min of activation the liposomes were added and the pH was adjusted to 7.4. The solution was incubated at room temp (2 hr). The free HA was removed by 3 repeated ultracentrifugations. The resulting HA-ULV's were at an average of 175 nm in size.
CPPs S22 (SEQ ID NO: 1), S24 (SEQ ID NO: 2) and S8 (SEQ ID NO: 6) and Control CPPs; 9R with additional C-terminal Lysine, 9R-K (SEQ ID NO: 40) and N2 (SEQ ID NO: 22), were dissolved to a concentration of 1 mg/ml. HA-ULV's (250 μl of 40 mg/ml) were activated with 1 ml of 0.4M EDC and 1 ml of 0.4 mM solfo-NHS. After 30 min the activated liposomes were divided into 5 test tubes (250 μl per each tube) and a different CPP (50 μl) was added. After incubation at RT for 2 hr, the CPP-HA-ULVS were dialyzed over night with PBS buffer (0.5 L/3 buffer changeovers) to remove unbound CPP, using dialysis bags with a cutoff 3500 Da.
For binding analysis, 3.5×10^5 cells were trypsinized, spin down, re-suspended with FACS buffer (1% fetal bovine serum in 1×PBS), incubated for 30 minutes on ice with different CPPs (Conjugated to FAM fluorophore) and washed with 1 ml FACS buffer.

A549 cell line = assay: Internalization assay of CPP conjugated liposomes by confocal microscopy; details: CPP conjugated to liposomes, 50 μl, 1 hour, 37° C.
Description: (§1) Internalization assay was performed in 24 well plates. A549 or NRK cells were seeded on cover slips in RPMI or DMEM medium respectively, supplemented with antibiotics, L-Glutamine and 10% fetal calf serum (Biological industries, Beit Haemek).
(§2) For membrane staining, cells were stained with CellTracker™ DilC18 (5)-DS solution (Invitrogen, Carlsbad, Calif., USA), diluted 1:5000 with PBS. For internalization experiments involve NPs Concanavalin A, Alexa fluor 647 conjugate (10 μg/ml) (C21421, Invitrogen,) was used to label cell membrane. For nuclei staining, cells were stained with Hoechst (1:10,000 in PBS) (33258, Sigma). Cells were exposed to CPPs only (10 μM) or CPP-liposome complex (50 μl from stock, according to preparation method) or liposome only (50 μl from the prepared liposomal stock solution) in medium without serum for a period of 1 hour at 37° C. in a humidified atmosphere with 5% CO2. Subsequently, the cells were washed twice using cold PBS, fixated with 4% Paraformaldehyde (PFA) and washed again with cold PBS. Membrane and nuclei staining were preformed after fixation. The cells were mounted by fluorescent mounting medium (Golden Bridge international, Mukilteo, Wash., USA) and fluorescent was measured using Andor Spinning disc confocal microscope and the Meta 510 Zeiss LSM confocal microscope. Laser beams at 405, 488, 561 and 650 nm were used for UV, FAM, Rhodamine, Concavaline A and CellTracker™, fluorophores excitation respectively. Serial optical sections of the cells were recorded for each treatment and the images were processed using Zeiss LSM Image browser software.

HeLa cells [1] = assay: Flow cytometry (FACS) quantification of cellular uptake of FAM labeled peptides; details: FAM labeled peptide, 10 uM, 37° C., 1 hour, average of a number of experiments
Description: To determine the efficiency of peptide loading, HeLa cells (ATCC number CCL-2TM (Manassas, Va.) grown in DMEM medium with stabilized glutamine supplemented with 10% fetal calf serum (Biological Industries, Beit Haemek, Israel), were seeded at a density of 20,000 per well in 96 U shape-well plates (Nunc A/S, Roskilde, Denmark) in serum containing DMEM (D-Mem W/O Na Pyr, product number 41965039).
After 24 hours, the cells were washed twice with 300 μL serum free OptiMEM (Reduced Serum Media, buffered with HEPES and sodium bicarbonate and supplemented with hypoxanthine, thymidine, sodium pyruvate, L-glutamine, trace elements and growth factors) medium and incubated in 50 μL serum free OptiMEM, containing peptides in the appropriate concentrations for 1 hour at 37° C. Each condition was tested in triplicates. After incubation, cells were washed with serum free medium, detached by trypsinization for 5 minutes, suspended in ice-cold PBS (phosphate buffered saline) containing 0.1% (w/v) BSA (bovine serum albumin), and measured immediately by flow cytometry (BD FACS Calibur System, Becton Dickinson, Heidelberg, Germany). The fluorescence of approximately 10,000 vital cells was acquired and gated based on sideward and forward scatter. Peptides used as positive controls were Tat(47-57) (SEQ ID NO:19; Jain M, et al., Cancer Res. 2005 Sep. 1; 65(17):7840-6), 9R (SEQ ID NO:21; Mueller J, et al., Bioconjug Chem. 2008 December; 19(12):2363-74) and penetratin (SEQ ID NO:20; Mueller J, et al., Bioconjug Chem. 2008 December; 19(12):2363-74). Negative control peptides N2 (SEQ ID NO:22) and N5 (SEQ ID NO:23) were designed according to Handbook [Cell-Penetrating Peptides, Second Edition, Edited by Ülo Langel, CRC Press 2007, Print ISBN: 978-0-8493-5090-0] and [US Patent Application 20080234183].

NRK cell line = assay: Internalization assay of CPP conjugated liposomes by confocal microscopy; details: CPP conjugated to liposomes, 50 μl, 1 hour, 37° C.
Description: as §1, §2

[2] = In vitro cytotoxicity by LDH (lactate dehydrogenase) analysis; details: human
Description: In order to assess the in vitro cytotoxicity of the peptides, an LDH (lactate dehydrogenase) analysis was carried out, using LDH kit (Promega G1782), according to manufacturer instructions.
Briefly, HeLa cells from 5 ml of confluent T75 flask were seed in 96 well plate at 10×10^4 cells/mL in 0.1 ml DMEM supplied with 10% Fetal Calf Serum. After 24 hrs incubation with growth medium, wells were replaced with Serum Free growth medium for 24 hrs, and then cells were washed with OptiMEM and replaced with 0.1 ml peptide solution at 10 uM for 1 h at 37° C. 50 ul of supernatant were transferred to the new plate and detected according to Cyto Tox 96, Non Radioactive cytotoxicity assay, (LDH kit Promega G1782). Table 5 presents the results of in vitro cytotoxicity measurements by LDH for S22, S24, S36 and S40 peptides and two positive control peptides; Tat(47-57) and R9. LDH experiment was done with fluorescent labeled (5-FAM) peptides in concentration of […] and the % of cytotoxicity was measured by LDH levels.

HeLa cells [3] = assay: Confocal microscopy of peptide membrane penetration and cellular distribution; details: 5 uM, 37° C.
Description: To determine qualitative validation of peptide membrane penetration, HeLa cells from 5 ml of confluent T75 flask were seed in 12 well plate at 10×10^4 cells/mL in 0.5 ml DMEM supplied with 10% Fetal Calf Serum. […] DiD (DiD-[1,1′-Dioctadecyl-3,3,3′,3′-tetramethylindodicarbocyanine iodide] Lipophilic membrane tracer) (5 ug/ml) was added to each well and incubated for 5 min at 4° C., washed twice with cold PBS and fixed with 3.7% PFA 20′ RT. Cells were rinsed with PBS and mounted on slides for confocal microscopy analysis.

Compound | binding to A549 cells (FACS) (A549 cells) | internalization into A549 cell line (confocal) (A549 cell line) | Geometric mean of FL1 intensity (HeLa cells [1]) | internalization into NRK cell line (confocal) (NRK cell line) | cytotoxicity at 1 h, 10 µM [2] [%] | accumulation of FAM labeled peptide inside the cell (confocal images) (HeLa cells [3])
RRRRRRRRRK [9R-K, positive control, 9R with additional C-terminal Lysine, reference compound] | high binding levels | – | – | – | – | –
VATIKSVSFYTRK [N2, negative control peptide, reference compound] | lower binding effect | did not show internalization effect | – | – | – | –
KKLALYLLLAL ({FAM}-KKLALYLLLAL-NH2) [S67] | – | – | 27.9 | – | – | –
KPSARMLLLKGFGK [S8] | lower binding effect | – | 52.29 | weak internalization | – | –
CC[C@H](C)[C@H](NC(=O)[C@H](CCCNC(=N)N)NC(=O)[C@H](CCCNC(=N)N)NC(=O)[C@H](CS)NC(=O)[C@@H](NC(=O)[C@H](CCCCN)NC(=O)[C@H](CCCCN)NC(=O)c1ccc2c(c1)C(=O)OC21c2ccc(O)cc2Oc2cc(O)ccc21)[C@@H](C)O)C(=O)N[C@@H](CC(N)=O)C(=O)N[C@@H](Cc1ccc(O)cc1)C(=O)N[C@@H](CS)C(=O)N[C@@H](C)C(=O)N[C@@H](CC(C)C)C(=O)N[C@@H](CC(N)=O)C(=O)N[C@@H](CCCCN)C(N)=O [S22, KKTCRRINYCALNK] (5FAM-KKTCRRINYCALNK-NH2; N-terminus and C-terminus assumed) | high binding levels | significant internalization effect | 206.4275 | weak internalization; also recorded: better penetration into NRK in a comparison with peptide only | 7 | strong cell membrane penetration capability; also recorded: efficient cellular uptake and intracellular accumulation
